According to patent publication US8304393B2, “Epithelial cell growth promoter” (Patent Technology Development Inc., priority 2004, dated 2012):

How the values were obtained:
human hair papilla cells = assay: Hair papilla cell growth test (Example 7, AlamarBlue); assay type: cell-based; settings: 0.3-100 μM, 3 days culture
Source text: (§1) To confirm the cell selectivity of the oligopeptide obtained in Example 3 as an epithelial cell growth promoter, the presence or absence of the cell growth-promoting effect on cells existing in skin tissues, that is, HBKs, epidermal cells, dermal fibroblasts, and hair papilla cells, was examined in the following manner. Incidentally, the same culture medium and test medium as in Example 5 were used.
Moreover, human hair papilla cells (product code “602-05”, a product by TOYOBO CO.) were dispersed in a culture medium, then inoculated into a collagen-coated 96-well microplate, and cultured at 37° C. in an atmosphere containing 5% CO2.
A 1 mg portion of the pentapeptide obtained in Example 3 was added to 232.8 μl of a test medium and dissolved by stirring to prepare a 10 mM solution. Subsequently, this 10 mM solution was stepwise diluted to prepare 6 types of sample solutions each in a concentration of 100 μM (No. 1), 30 μM (No. 2), 10 μM (No. 3), 3 μM (No. 4), 1 (No. 5), and 0.3 μM (No. 6). […]
(§2) After 24 hours from the inoculation of the cells, the culture solutions were removed, and the cultured cells were washed with a DMEM solution. […] After 2 hours, fluorescence intensity (excitation wavelength: 544 nm, measurement wavelength: 590 nm) was measured with a microplate reader (Model “Fluoroskan Ascent FL”, manufactured by Labsystems) to evaluate the number of cells.

epidermal cells = assay: Epidermal cell growth test (Example 7, AlamarBlue); assay type: cell-based, C3H/HeN mouse; settings: for effect on the epidermal cells as compared with that of the control: 4 days culture
Source text: as §1
(§3) The skin of a 5 day-old C3H/HeN mouse was aseptically collected and cut with a surgical knife into samples of strips of approximately 2-mm-wide skin slices. The above-mentioned samples were immersed in a solution prepared by dissolving 500 U/ml of dispase (lot No. 0101, a product by GODO SHUSEI CO.) in DMEM (product code “D-5523”, a product by Sigma) containing 5% by mass of FBS (lot No. 0101, a product by Cansera International Inc.), and then kept standing at 4° C. for 16 hours. Subsequently, epidermis tissues were ablated with tweezers from the skin slices and separated from dermis tissues. The thus obtained epidermis tissues were subjected to the separation of epidermal cells, and the dermis tissues were subjected to the separation of HBKs and dermal fibroblasts.
The above-mentioned epidermis tissues were immersed in a solution prepared by dissolving 0.25% by mass of trypsin in 2.65 mM aqueous EDTA solution, and then treated at 37° C. for 5 minutes to prepare a dispersion solution of epidermal cells.
(§4) Subsequently, this dispersion solution was centrifuged at 1000 rpm for 5 minutes, and the supernatant was removed. The thus obtained epidermal cells were dispersed in a culture medium, then inoculated into a collagen-coated 96-well microplate, and cultured at 37° C. in an atmosphere containing 5% CO2.
(§5) A 1 mg portion of the pentapeptide obtained in Example 3 was added to 232.8 μl of a test medium and dissolved by stirring to prepare a 10 mM solution. Subsequently, this 10 mM solution was stepwise diluted to prepare 6 types of sample solutions each in a concentration of 100 μM (No. 1), 30 μM (No. 2), 10 μM (No. 3), 3 μM (No. 4), 1 (No. 5), and 0.3 μM (No. 6). Only a test medium was used as a control.
(§6) After 24 hours from the inoculation of the cells, the culture solutions were removed, and the cultured cells were washed with an MCDB153 solution. Each of the above mentioned sample solutions was added to the cultured cell at 100 μl/well and cultured at 37° C. in an atmosphere containing 5% CO2. After 4 days, AlamarBlue reagent (registered trademark, cat. No. DAL1100, lot No. AB083002, a product by Biosource International Inc.) was added at 10 μl/well, and the culture was continued at 37° C. in an atmosphere containing 5% CO2. After 2 hours, fluorescence intensity (excitation wavelength: 544 nm, measurement wavelength: 590 nm) was measured with a microplate reader (Model “Fluoroskan Ascent FL”, manufactured by Labsystems) to evaluate the number of cells. A significant difference test was performed by Dunnett's multiple comparison test (software “Super ANOVA V.1.11”, a product by Abacus Concepts).

HBKs = assay: HBK growth test (Example 7, AlamarBlue); assay type: cell-based, C3H/HeN mouse; settings: for effect on the HBK growth as compared with that of the control: 4 days culture
Source text: as §1, §3
The thus obtained dermis tissues were immersed in PBS (−) (product code “P-4417”, a product by Sigma) and cut into strips with opthalmological scissors. The strips were immersed into a solution prepared by dissolving 0.2% by mass of collagenase (lot No. 001014W, a product by Nitta Gelatin Inc.) in DMEM containing 5% by mass of FBS, and then digested at 37° C. for 1 hour. The thus obtained dermis digestion solution was centrifuged at 1000 rpm for 5 minutes. The supernatant was removed, and the residue was supplemented with PBS (−) and gently pipetted to prepare a dermis suspension.
For separating dermal fibroblasts and hair bulbs, this dermis suspension was kept standing for 15 minutes to precipitate only the hair bulbs. The “standing to precipitation” procedure was repeated three times. The thus obtained hair bulbs were immersed in a solution preparing by dissolving 0.25% by mass of trypsin in 2.65 mM aqueous EDTA solution, and then treated at 37° C. for 5 minutes to prepare a dispersion solution of HBKs.
as §4, with “Next,” for “Subsequently,”, “minutes. After this centrifugation,” for “minutes, and”, “HBKs” for “epidermal cells”
as §5, §6

dermal fibroblasts = assay: Dermal fibroblast growth test (Example 7, AlamarBlue); assay type: cell-based, C3H/HeN mouse; settings: 0.3-100 μM, 3 days culture
Source text: as §1
The skin of a 5 day-old C3H/HeN mouse was aseptically collected and cut with a surgical knife into samples of strips of approximately 2-mm-wide skin slices. The above-mentioned samples were immersed in a solution prepared by dissolving 500 U/ml of dispase (lot No. 0101, a product by GODO SHUSEI CO.) in DMEM (product code “D-5523”, a product by Sigma) containing 5% by mass of FBS (lot No. 0101, a product by Cansera International Inc.), and then kept standing at 4° C. for 16 hours. Subsequently, epidermis tissues were ablated with tweezers from the skin slices and separated from dermis tissues. […]
as §2

C3H/He female mice = assay: Hair regrowth on shaved dorsal skin of telogen-phase mice (Example 6); assay type: in vivo; settings: 1 mg/ml, 100 μl/mouse once a day topical, 14th day after application
Method: A 1 mg portion of the pentapeptide obtained in Example 3 was dissolved in 300 μl of water for injection (product code “057-00456”, a product by Otsuka Pharmaceutical Co.), to which 200 μl of propylene glycol (product code “161-05006”, a product by Wako Pure Chemical Industries) and 500 μl of ethyl alcohol (product code “057-00456”, a product by Wako Pure Chemical Industries) were then added and they were mixed together to prepare an epithelial cell growth promoter in a concentration of 1 mg/ml.
Ten 7-week-old C3H/He female mice were raised for acclimatization for 1 week, and the hair on the dorsal of each mouse in the telogen phase of a hair cycle was shaved with an electric clipper and an electric shaver to prepare experimental animals.
Next, these experimental animals were divided into two groups each containing five mice. The epithelial cell growth promoter was applied at 100 μl/mouse once a day to the shaved area of the first group from the 3rd day after shaving on, while only a mixture of water for injection, propylene glycol, and ethyl alcohol (3:2:5 by volume) was applied as a control to the second group.
Next, these images were computer-processed to calculate with image analysis software the ratio of the hair-regrowth area (the number of pixels of hair-regrowth area/the number of pixels of shaved area) as percentages. […]

CC[C@H](C)[C@H](NC(=O)[C@@H]1CCCN1C(=O)CN)C(=O)NCC(=O)N[C@@H](CO)C(=O)O (racemic) [Example 3, glycyl-prolyl-isoleucyl-glycyl-serine]
influence on hair papilla cell growth (human hair papilla cells): no influence | effect on the epidermal cells as compared with that of the control (epidermal cells; 0.3 μM (No. 6)): 102% | effect on the epidermal cells as compared with that of the control (epidermal cells; 1 μM (No. 5)): 110% | effect on the epidermal cells as compared with that of the control (epidermal cells; 3 μM (No. 4)): 118% | effect on the epidermal cells as compared with that of the control (epidermal cells; 10 μM (No. 3)): 124% | effect on the epidermal cells as compared with that of the control (epidermal cells; 30 μM (No. 2)): 127% | effect on the epidermal cells as compared with that of the control (epidermal cells; 100 μM (No. 1)): 127% | concentration at which significant difference from control could be noted (epidermal cells; epidermal cells, 1 μM: p<0.05, 3 μM or higher: p<0.01): ≥ 1 µM | effect on the HBK growth as compared with that of the control (HBKs; 0.3 μM (No. 6)): 101% | effect on the HBK growth as compared with that of the control (HBKs; 1 μM (No. 5)): 111% | effect on the HBK growth as compared with that of the control (HBKs; 3 μM (No. 4)): 124% | effect on the HBK growth as compared with that of the control (HBKs; 10 μM (No. 3)): 141% | effect on the HBK growth as compared with that of the control (HBKs; 30 μM (No. 2)): 142% | effect on the HBK growth as compared with that of the control (HBKs; 100 μM (No. 1)): 141% | concentration at which significant difference from control could be noted (HBKs; HBKs, p<0.01, Dunnett's test): ≥ 1 µM | influence on dermal fibroblast growth (dermal fibroblasts): no influence | hair growth promotion observed in pictures of the shaved areas (C3H/He female mice; compared with control group): evident hair growth promotion | ratio of the hair-regrowth area (C3H/He female mice; n=5, control 36.9±5.7%, p<0.01): 66.6±3.5%
